Test results: ChEMBL document CHEMBL3879906 (2013)
The source made the active and inactive calls. The rule behind the calls is not given here.

How the values were obtained:
[1] = tested on: Cardiac muscle cell; assay: Increase in reverse rate-dependent action potential duration at 75% repolarization in human atrial myocytes at 0.5 to 2 Hz at 50 uM by whole cell patch clamp method; assay type: functional, cell-based
[2] = tested on: Cardiac muscle cell; assay: Increase in reverse rate-dependent action potential duration at 90% repolarization in human atrial myocytes at 0.5 to 2 Hz at 50 uM by whole cell patch clamp method; assay type: functional, cell-based
[3] = tested on: Cardiac muscle cell; assay: Increase in reverse rate-dependent action potential duration at 50% repolarization in human atrial myocytes at 0.5 to 2 Hz at 50 uM by whole cell patch clamp method; assay type: functional, cell-based
[4] = tested on: Mus musculus; assay: Acute toxicity in Kunming mouse assessed as abnormal activity at 0.3 g/kg, po administered every 1.5 hrs for 3 times measured for 2 weeks relative to vehicle-treated control; assay type: organism-based; conditions: in vivo, 300 mg/kg, 336 h
[5] = tested on: Heart; assay: Effect on heart rate in New Zealand white rabbit heart under hypokalemic conditions at 30 uM by electrocardiogram (reference value: 157 to 175 /min); assay type: ADME, tissue-based, Oryctolagus cuniculus
[6] = tested on: Cardiac muscle cell; assay: Increase in action potential duration at 90% repolarization in human atrial myocytes at 0.5 to 2 Hz at 10 uM by whole cell patch clamp method; assay type: functional, cell-based
[7] = biological target: Potassium voltage-gated channel subfamily A member 5 (Homo sapiens) (UniProt P22460); assay: Inhibition of Kv1.5 in human atrial myocytes assessed as decrease in ultra rapidly activating delayed rectifier potassium current amplitude at 40 mV by whole cell patch clamp method; assay type: cell-based
[8] = biological target: Voltage-gated inwardly rectifying potassium channel KCNH2 (Homo sapiens, UniProt Q12809); assay: Inhibition of human ERG expressed in HEK293 cells assessed as decrease in current amplitude at 30 uM by whole cell patch clamp method; assay type: cell-based; conditions: hek293, 30 µM
[9] = tested on: Cardiac muscle cell; assay: Increase in action potential duration at 50% repolarization in human atrial myocytes at 0.5 to 2 Hz at 10 uM by whole cell patch clamp method; assay type: functional, cell-based
[10] = biological target: T1, Voltage-gated potassium channel, IKs; KCNQ1(Kv7.1)/KCNE1(MinK) (Homo sapiens, UniProt P51787+P15382); assay: Inhibition of human KCNQ1/KCNE1 expressed in HEK293 cells assessed as recovery of current amplitude at 30 uM measured after compound washout by whole cell patch clamp method; assay type: cell-based; set-up: scale not given: the % may be the effect or the level left; conditions: hek293, 30 µM
[11] = Effect on amplitude of action potential in human atrial myocytes at 5 to 10 uM by whole cell patch clamp method; assay type: cell-based; conditions: cardiac muscle cell
[12] = biological target: T2, A-type voltage-gated potassium channel KCND3 (Homo sapiens, UniProt Q9UK17); assay: Inhibition of Kv4.3 in human atrial myocytes assessed as decrease in transient outward potassium current amplitude at 3 to 10 uM by whole cell patch clamp method; assay type: cell-based
T2 sequence (Q9UK17 whole entry): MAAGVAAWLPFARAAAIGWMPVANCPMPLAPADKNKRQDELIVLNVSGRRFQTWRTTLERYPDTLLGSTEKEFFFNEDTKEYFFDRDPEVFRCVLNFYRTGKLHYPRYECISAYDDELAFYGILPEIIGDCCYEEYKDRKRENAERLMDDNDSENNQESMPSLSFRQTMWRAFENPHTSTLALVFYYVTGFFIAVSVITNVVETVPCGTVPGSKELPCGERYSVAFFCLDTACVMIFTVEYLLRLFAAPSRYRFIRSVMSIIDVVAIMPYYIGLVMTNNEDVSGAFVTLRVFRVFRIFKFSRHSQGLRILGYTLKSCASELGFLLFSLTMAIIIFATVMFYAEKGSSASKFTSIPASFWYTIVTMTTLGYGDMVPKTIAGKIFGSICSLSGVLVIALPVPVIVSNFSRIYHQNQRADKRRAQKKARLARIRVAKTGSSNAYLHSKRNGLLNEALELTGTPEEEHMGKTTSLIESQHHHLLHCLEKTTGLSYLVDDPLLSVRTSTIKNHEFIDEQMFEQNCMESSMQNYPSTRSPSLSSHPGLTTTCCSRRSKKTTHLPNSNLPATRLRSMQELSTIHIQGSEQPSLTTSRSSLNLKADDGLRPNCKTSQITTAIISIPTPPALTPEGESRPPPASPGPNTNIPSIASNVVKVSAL

[13] = biological target: T2, A-type voltage-gated potassium channel KCND3; assay: Inhibition of Kv4.3 in human atrial myocytes assessed as recovery time constant of transient outward potassium current amplitude at 10 uM by whole cell patch clamp method (reference value: 102 +/- 12 ms); assay type: cell-based
[14] = tested on: Canis familiaris; assay: Anti-atrial fibrillation activity in bilateral vagal stimulated anesthetized dog assessed as time duration of atrial fibrillation at 100 ms of basic cycle length at 10 mg/kg administered intraduodenally; assay type: functional, Canis lupus familiaris
[15] = biological target: Potassium voltage-gated channel subfamily A member 5 (Homo sapiens) (UniProt P22460); assay: Inhibition of Kv1.5 in human atrial myocytes assessed as decrease in ultra rapidly activating delayed rectifier potassium current amplitude at 3 uM after 8 mins by whole cell patch clamp method; assay type: cell-based
[16] = Effect on resting membrane potential in human atrial myocytes at 5 to 10 uM by whole cell patch clamp method; assay type: cell-based; conditions: cardiac muscle cell
[17] = biological target: T1, Voltage-gated potassium channel, IKs; KCNQ1(Kv7.1)/KCNE1(MinK); assay: Inhibition of human KCNQ1/KCNE1 expressed in HEK293 cells assessed as decrease in current amplitude at +20 to +60 mV by whole cell patch clamp method; assay type: cell-based
[18] = tested on: Heart; assay: Effect on QTc interval in New Zealand white rabbit heart under hypokalemic conditions at 30 uM by electrocardiogram (reference value: 304.5 to 340.1 ms); assay type: ADME, Oryctolagus cuniculus
[19] = tested on: Canis familiaris; assay: Anti-atrial fibrillation activity in anesthetized dog assessed as prolongation of effective refractory time period of left atrium at 200 to 250 ms of basic cycle length at 5 mg/kg administered intraduodenally measured after 1 to 4 hrs relative to vehicle-treated control; assay type: functional, Canis lupus familiaris
[20] = tested on: Mus musculus; assay: Acute toxicity in Kunming mouse assessed as mortality at 0.3 g/kg, po administered every 1.5 hrs for 3 times measured for 2 weeks relative to vehicle-treated control; assay type: organism-based; conditions: in vivo, 300 mg/kg, 336 h
[21] = biological target: T1, Voltage-gated potassium channel, IKs; KCNQ1(Kv7.1)/KCNE1(MinK); assay: Inhibition of human KCNQ1/KCNE1 expressed in HEK293 cells assessed as decrease in current amplitude at 30 uM by whole cell patch clamp method; assay type: cell-based; conditions: hek293, 30 µM
[22] = biological target: Potassium voltage-gated channel subfamily A member 5 (Homo sapiens) (UniProt P22460); assay: Inhibition of Kv1.5 in human atrial myocytes assessed as decrease in ultra rapidly activating delayed rectifier potassium tail and step current amplitude at 3 to 30 uM by whole cell patch clamp method; assay type: cell-based
[23] = tested on: Canis familiaris; assay: Induction of QTc interval prolongation in anesthetized dog at 5 mg/kg administered intraduodenally after 1 to 4 hrs; assay type: organism-based, Canis lupus familiaris; conditions: in vivo, other
[24] = tested on: Cardiac muscle cell; assay: Prolongation of action potential duration in human atrial myocytes at 2 Hz at 5 to 10 uM by whole cell patch clamp method; assay type: functional, cell-based
[25] = tested on: Cardiac muscle cell; assay: Increase in action potential duration at 75% repolarization in human atrial myocytes at 0.5 to 2 Hz at 10 uM by whole cell patch clamp method; assay type: functional, cell-based
[26] = tested on: Canis familiaris; assay: Anti-atrial fibrillation activity in bilateral vagal stimulated anesthetized dog assessed as time duration of atrial fibrillation at 100 ms of basic cycle length at 5 mg/kg administered intraduodenally measured after 2 hrs; assay type: functional, Canis lupus familiaris
[27] = species: Cavia porcellus; assay: Inhibition of acetylcholine-activated potassium channel in guinea pig atrial myocytes assessed as reversal of carbachol-induced membrane conductance at 3 uM by whole cell patch clamp method; assay type: cell-based

T1 sequence (P51787 whole entry): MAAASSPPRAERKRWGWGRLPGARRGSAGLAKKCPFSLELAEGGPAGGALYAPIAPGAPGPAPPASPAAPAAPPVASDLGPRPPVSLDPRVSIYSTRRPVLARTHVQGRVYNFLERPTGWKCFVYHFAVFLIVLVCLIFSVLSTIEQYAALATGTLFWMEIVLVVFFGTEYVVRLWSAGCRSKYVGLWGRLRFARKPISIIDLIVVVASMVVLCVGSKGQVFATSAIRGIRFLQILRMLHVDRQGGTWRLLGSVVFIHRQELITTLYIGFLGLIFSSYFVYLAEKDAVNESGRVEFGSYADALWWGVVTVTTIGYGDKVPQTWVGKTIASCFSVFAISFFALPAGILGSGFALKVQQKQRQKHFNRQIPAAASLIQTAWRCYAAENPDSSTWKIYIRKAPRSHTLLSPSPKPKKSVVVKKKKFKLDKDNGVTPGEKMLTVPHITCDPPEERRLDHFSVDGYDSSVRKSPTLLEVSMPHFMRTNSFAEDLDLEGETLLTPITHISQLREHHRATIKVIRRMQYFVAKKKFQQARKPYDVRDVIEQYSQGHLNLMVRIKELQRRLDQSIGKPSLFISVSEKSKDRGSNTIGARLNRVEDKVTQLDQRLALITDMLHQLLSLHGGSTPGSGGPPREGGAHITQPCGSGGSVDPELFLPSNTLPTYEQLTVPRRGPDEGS
Potassium voltage-gated channel subfamily A member 5 (Homo sapiens), sequence (P22460 whole entry): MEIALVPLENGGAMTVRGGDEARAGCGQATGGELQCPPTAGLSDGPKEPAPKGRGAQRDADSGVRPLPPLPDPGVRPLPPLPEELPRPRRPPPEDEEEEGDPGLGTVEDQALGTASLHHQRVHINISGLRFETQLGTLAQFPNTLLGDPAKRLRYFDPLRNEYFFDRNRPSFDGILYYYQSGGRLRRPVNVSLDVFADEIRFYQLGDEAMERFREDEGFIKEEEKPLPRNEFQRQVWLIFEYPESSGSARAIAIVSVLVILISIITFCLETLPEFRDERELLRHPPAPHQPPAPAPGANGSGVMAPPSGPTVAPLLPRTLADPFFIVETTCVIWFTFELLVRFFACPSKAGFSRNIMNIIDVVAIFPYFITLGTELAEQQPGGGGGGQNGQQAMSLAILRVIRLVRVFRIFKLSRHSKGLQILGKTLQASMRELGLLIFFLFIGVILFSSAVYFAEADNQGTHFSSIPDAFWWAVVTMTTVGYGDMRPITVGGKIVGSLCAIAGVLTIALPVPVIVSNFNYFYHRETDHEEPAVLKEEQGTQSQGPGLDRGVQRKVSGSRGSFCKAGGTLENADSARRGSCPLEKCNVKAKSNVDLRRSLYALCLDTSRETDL
Voltage-gated inwardly rectifying potassium channel KCNH2, sequence (Q12809 whole entry): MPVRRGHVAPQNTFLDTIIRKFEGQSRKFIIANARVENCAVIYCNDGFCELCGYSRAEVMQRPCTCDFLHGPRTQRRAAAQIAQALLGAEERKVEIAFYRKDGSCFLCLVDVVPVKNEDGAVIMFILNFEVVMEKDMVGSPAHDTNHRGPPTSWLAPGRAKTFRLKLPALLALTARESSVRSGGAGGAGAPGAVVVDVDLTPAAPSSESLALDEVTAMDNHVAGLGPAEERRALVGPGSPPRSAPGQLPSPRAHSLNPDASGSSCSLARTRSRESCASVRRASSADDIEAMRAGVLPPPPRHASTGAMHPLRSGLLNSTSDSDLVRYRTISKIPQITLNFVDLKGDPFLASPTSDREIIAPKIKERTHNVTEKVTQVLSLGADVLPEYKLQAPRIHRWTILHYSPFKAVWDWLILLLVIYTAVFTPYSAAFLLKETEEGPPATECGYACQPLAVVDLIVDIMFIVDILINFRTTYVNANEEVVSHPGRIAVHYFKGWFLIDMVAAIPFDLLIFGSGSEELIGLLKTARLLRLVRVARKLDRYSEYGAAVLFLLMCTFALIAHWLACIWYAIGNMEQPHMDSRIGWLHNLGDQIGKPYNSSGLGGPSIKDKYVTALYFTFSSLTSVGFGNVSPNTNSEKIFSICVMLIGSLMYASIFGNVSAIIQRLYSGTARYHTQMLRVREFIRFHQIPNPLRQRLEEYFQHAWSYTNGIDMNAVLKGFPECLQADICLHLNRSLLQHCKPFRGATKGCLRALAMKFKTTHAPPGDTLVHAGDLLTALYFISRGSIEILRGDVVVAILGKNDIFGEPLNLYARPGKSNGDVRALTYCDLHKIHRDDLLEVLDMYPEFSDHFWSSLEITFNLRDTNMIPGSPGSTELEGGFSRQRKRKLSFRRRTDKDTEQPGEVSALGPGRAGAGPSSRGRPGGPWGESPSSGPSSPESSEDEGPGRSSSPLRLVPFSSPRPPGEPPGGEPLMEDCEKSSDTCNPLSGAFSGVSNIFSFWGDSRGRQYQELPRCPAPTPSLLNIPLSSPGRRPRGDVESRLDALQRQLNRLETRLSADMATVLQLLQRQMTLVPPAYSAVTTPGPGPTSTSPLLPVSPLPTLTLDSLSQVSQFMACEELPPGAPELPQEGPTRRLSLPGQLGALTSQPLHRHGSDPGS

With `Nc1ccncc1` the Activity [1] was “Active”, the Activity [2] was “Active” and the Activity [3] was “Active”.

With `COc1ccc(-c2cc(=O)c3c(O)cc(O)cc3o2)cc1` [ACACETIN] the Activity [4] was “Non-Toxic”, the Activity [5] was 156 bpm and the Activity [6] was “Active”. For the same molecule, the inhibition [7] was “Dose-dependent effect”, the “inhibition (INH)” value [8] was “Active” and the Activity [9] was “Active”. For the same molecule, the Activity [10] was 83%, the Activity [11] was “Non-Toxic” and the “inhibition (INH)” value [12] was “Active”. For the same molecule, the Time [13] was 136 ms, the Time [14] was 4.3 to 7.11 min and the inhibition [15] was “Active”. The Activity [16] was “Non-Toxic”, the “inhibition (INH)” value [17] was “Dose-dependent effect” and the Time [18] was 308.7 ms. For the same molecule, the Activity [19] was 10 - 25%, the Activity [20] was “Non-Toxic” and the “inhibition (INH)” value [21] was “Active”. The inhibition [22] was “Active”, the Activity [23] was “Non-Toxic” and the Activity [24] was “Active”. The Activity [25] was “Active”, the Time [26] was 5.31 to 6.12 min and the inhibition [27] was “Active”.

In the case of `CC(C)NCC(O)c1ccc(NS(C)(=O)=O)cc1` (centres undefined) [SOTALOL], the Activity [23] is reported as “Toxic” and the Time [26] is reported as 8.5 min.
